# Source: US20240239759A1, “ISOXAZOLINE COMPOSITIONS AND THEIR USE AS ANTIPARASITICS” (Intervet Inc., priority 2007, published 2024)
# “And” between values parts separate entries of the source, which are not always exact repeats. Equal values may be shown once.
# Key:
# [1] = test system: cat fleas (Ctenocephalides felis); experiment: Adult fleas fed on artificial membranes with spiked blood (Example 1); conditions: 48 hr continuous feeding
# Experimental: Adult fleas (20-30) were fed on artificial membranes with blood spiked with Compound 10-1, Compound 11-1, or a positive control (fipronil) at a concentration of 100, 10, or 1 ppm. Flea efficacy was assessed after 48 hr of continuous feeding by comparing the number of killed and damaged fleas with the number of fed fleas. Flea efficacy was 100% for Compound 10-1, Compound 11-1, and fipronil at 100, 10, and 1 ppm.
# adult fleas (C. felis) = experiment: Efficacy against fleas on mice (Example 2A); type: in vivo, Ctenocephalides felis
# Experimental: (§1) Mice were divided into groups of three, and treated topically with 100 ppm body weight, orally with 10 mg/kg bodyweight, or subcutaneously with 10 mg/kg bodyweight of Compound 11-1, fipronil (positive control), or nothing (negative control). These mice were sedated and infested with adult fleas (C. felis) 1, 3, 6, and 24 hr after treatment. Fleas were recovered from the mice after approximately 30 minutes of feeding. The assessment of flea inhibition (% of dead and damaged fleas) was conducted 1 and 24 hr after each infestation.
# M. musculinus = experiment: Efficacy against mites on mice (Example 2B); type: in vivo, Myocoptes musculinus; parameters: key: “+”=low infestation rate; “++”=medium infestation rate; “+++”=high infestation rate; conditions: repeated 7 days later
# Experimental: The mice were divided into groups of three, and treated topically with 100 ppm body weight, orally with 10 mg/kg body weight, or subcutaneously with 10 mg/kg body weight of Compound 11-1, fipronil (positive control), or nothing (negative control). This treatment was then repeated 7 days later. The infestation rate per mouse (“+”=low infestation rate, “++”=medium infestation rate, “+++”=high infestation rate) was assessed repeatedly on days 1, 6, 9, 13, and 23. Efficacy was defined as the inhibition of the mite infestation rate on treated mice relative to the negative control group.
# [2] = test system: juvenile soft ticks (O. moubata); experiment: Efficacy against soft (Argaside) ticks on Guinea pigs (Example 2C); type: in vivo, Ornithodoros moubata; conditions: Guinea pig
# Experimental: (§2) Six Guinea pigs were treated orally, subcutaneously, or intraperitoneally with 10 mg/kg bodyweight of Compound 11-1 or fipronil (positive control). The Guinea pigs were locally co-infested with juvenile soft ticks (O. moubata) and bed bugs (C. lectularius) once before the treatment, and at different time points after treatment between days 2 and 50. Ten engorged ticks/bed bugs were collected to assess the percentage of killed individuals per species 24 hr after each infestation.
# (§3) For Guinea pigs treated with Compound 11-1, the ticks and bed bugs died within 1 to 5 hr following infestation up to Day 29, and within 8 to 24 hr after day 29. For Guinea pigs treated with fipronil, ticks and bed bugs died within 1 to 7 hr after infestation up to Day 29, and within 8 to 24 hr after day 29.
# [3] = test system: bed bugs (C. lectularius); experiment: Efficacy against bed bugs on Guinea pigs (Example 2C); type: in vivo, Cimex lectularius; conditions: Guinea pig
# Experimental: as §2, §3
# [4] = test system: brown dog ticks, R. sanguineus (nymphs); experiment: Efficacy against hard (Ixodide) ticks on Guinea pigs (Example 2D); type: in vivo, Rhipicephalus sanguineus; conditions: all treated groups of Study 1 (100 ppm dip, 10 mg/kg oral, 10 mg/kg subcutaneous) and Study 2 (25 ppm dip, 2.5 mg/kg oral, 2.5 mg/kg subcutaneous), Day 4 to Day 8
# Experimental: (§4) Guinea pigs were divided into groups of three. Each group was subjected to one of the following treatments with either Compound 11-1, fipronil (positive control), or neither (negative control):
# (§5) • 1. 100 ppm body weight topical administration by animal dip • 2. 10 mg/kg body weight oral administration • 3. 10 mg/kg body weight subcutaneous administration • 4. No treatment (negative control)
# (§6) • 1. 25 ppm body weight topical administration by animal dip • 2. 2.5 mg/kg body weight oral administration • 3. 2.5 mg/kg body weight subcutaneous administration • 4. No treatment (negative control) One day before the treatment, all the Guinea pigs were infested with 100 vital juvenile (“nymph”) hard ticks (brown dog ticks, R. sanguineus). Engorged, detached nymphs were counted (eN) from Day 4 to Day 8 to calculate the efficacy of the treatments according to following formula: […]
# In addition, collected ticks were assessed for molting into the next stage.
# [5] = Side effects in mice, flea study (Example 2A); type: in vivo; conditions: topical 100 ppm, oral or subcutaneous 10 mg/kg
# Experimental: as §1
# [6] = Side effects in Guinea pigs, soft tick and bed bug study (Example 2C); type: in vivo
# Experimental: as §2
# [7] = Side effects in Guinea pigs, hard tick studies (Example 2D); type: in vivo; conditions: Guinea pigs; either study (topical dip, oral, subcutaneous)
# Experimental: as §4, §5, §6
# In the first study, 32 engorged R. sanguineus nymphs were collected from animals of the untreated negative control group. And in the second study, 75 engorged R. sanguineus nymphs were collected from animals of the untreated negative control group. […] Thus, the inhibition of engorged nymphs for both Compound 11-1 and fipronil was 100%.
smiles,measurement,setting,value
"Cc1cc(C2=NOC(c3cc(Cl)cc(Cl)c3)(C(F)(F)F)C2)ccc1C(=O)NCC(=O)NCC(F)(F)F (racemic) [Compound 11-1, 4-[5-(3,5-dichlorophenyl)-5-trifluoromethyl-4,5-dihydroisoxazol-3-yl]-2-methyl-N-[(2,2,2-trifluoro-ethylcarbamoyl)-methyl]-benzamide]",Flea efficacy,[1]; blood spiked at 1 ppm,100%
same,Flea efficacy,[1]; blood spiked at 10 ppm,100%
same,Flea efficacy,[1]; blood spiked at 100 ppm,100%
same,Flea inhibition (% of dead and damaged fleas),"adult fleas (C. felis); oral 10 mg/kg, infested 1 hr after treatment, assessed 1 hr after infestation",43.3%
same,Flea inhibition (% of dead and damaged fleas),"adult fleas (C. felis); oral 10 mg/kg, infested 1 hr after treatment, assessed 24 hr after infestation",67.7%
same,Flea inhibition (% of dead and damaged fleas),"adult fleas (C. felis); oral 10 mg/kg, infested 3 hr after treatment, assessed 1 hr after infestation",44.3%
same,Flea inhibition (% of dead and damaged fleas),"adult fleas (C. felis); oral 10 mg/kg, infested 3 hr after treatment, assessed 24 hr after infestation",48.7%
same,Flea inhibition (% of dead and damaged fleas),"adult fleas (C. felis); oral 10 mg/kg, infested 6 hr after treatment, assessed 1 hr after infestation",17.7%
same,Flea inhibition (% of dead and damaged fleas),"adult fleas (C. felis); oral 10 mg/kg, infested 6 hr after treatment, assessed 24 hr after infestation",26.7%
same,Flea inhibition (% of dead and damaged fleas),"adult fleas (C. felis); oral 10 mg/kg, infested 24 hr after treatment, assessed 1 hr after infestation",37.7%
same,Flea inhibition (% of dead and damaged fleas),"adult fleas (C. felis); oral 10 mg/kg, infested 24 hr after treatment, assessed 24 hr after infestation",82.0%
same,Flea inhibition (% of dead and damaged fleas),"adult fleas (C. felis); subcutaneous 10 mg/kg, infested 1 hr after treatment, assessed 1 hr after infestation",7.7%
same,Flea inhibition (% of dead and damaged fleas),"adult fleas (C. felis); subcutaneous 10 mg/kg, infested 1 hr after treatment, assessed 24 hr after infestation",40.0%
same,Flea inhibition (% of dead and damaged fleas),"adult fleas (C. felis); subcutaneous 10 mg/kg, infested 3 hr after treatment, assessed 1 hr after infestation",31.0%
same,Flea inhibition (% of dead and damaged fleas),"adult fleas (C. felis); subcutaneous 10 mg/kg, infested 3 hr after treatment, assessed 24 hr after infestation",42.3%
same,Flea inhibition (% of dead and damaged fleas),"adult fleas (C. felis); subcutaneous 10 mg/kg, infested 6 hr after treatment, assessed 1 hr after infestation",21.0%
same,Flea inhibition (% of dead and damaged fleas),"adult fleas (C. felis); subcutaneous 10 mg/kg, infested 6 hr after treatment, assessed 24 hr after infestation",36.7%
same,Flea inhibition (% of dead and damaged fleas),"adult fleas (C. felis); subcutaneous 10 mg/kg, infested 24 hr after treatment, assessed 1 hr after infestation",100%
same,Flea inhibition (% of dead and damaged fleas),"adult fleas (C. felis); subcutaneous 10 mg/kg, infested 24 hr after treatment, assessed 24 hr after infestation",100%
same,Flea inhibition (% of dead and damaged fleas),"adult fleas (C. felis); topical 100 ppm body weight, infested 1 hr after treatment, assessed 1 hr after infestation",0%
same,Flea inhibition (% of dead and damaged fleas),"adult fleas (C. felis); topical 100 ppm body weight, infested 1 hr after treatment, assessed 24 hr after infestation",97.7%
same,Flea inhibition (% of dead and damaged fleas),"adult fleas (C. felis); topical 100 ppm body weight, infested 3 hr after treatment, assessed 1 hr after infestation",0%
same,Flea inhibition (% of dead and damaged fleas),"adult fleas (C. felis); topical 100 ppm body weight, infested 3 hr after treatment, assessed 24 hr after infestation",99.0%
same,Flea inhibition (% of dead and damaged fleas),"adult fleas (C. felis); topical 100 ppm body weight, infested 6 hr after treatment, assessed 1 hr after infestation",0%
same,Flea inhibition (% of dead and damaged fleas),"adult fleas (C. felis); topical 100 ppm body weight, infested 6 hr after treatment, assessed 24 hr after infestation",81.0%
same,Flea inhibition (% of dead and damaged fleas),"adult fleas (C. felis); topical 100 ppm body weight, infested 24 hr after treatment, assessed 1 hr after infestation",2%
same,Flea inhibition (% of dead and damaged fleas),"adult fleas (C. felis); topical 100 ppm body weight, infested 24 hr after treatment, assessed 24 hr after infestation",93.3%
same,Mite infestation rate per mouse,"M. musculinus; oral 10 mg/kg, Day 1",+ to ++
same,Mite infestation rate per mouse,"M. musculinus; oral 10 mg/kg, Day 6",++
same,Mite infestation rate per mouse,"M. musculinus; oral 10 mg/kg, Day 9, 10 mg/kg",2 mice: none and 1 mouse: +
same,Mite infestation rate per mouse,"M. musculinus; oral 10 mg/kg, Day 13",none
same,Mite infestation rate per mouse,"M. musculinus; oral 10 mg/kg, Day 23",none
same,Mite infestation rate per mouse,"M. musculinus; subcutaneous 10 mg/kg, Day 1",+ to ++
same,Mite infestation rate per mouse,"M. musculinus; subcutaneous 10 mg/kg, Day 6",++
same,Mite infestation rate per mouse,"M. musculinus; subcutaneous 10 mg/kg, Day 9",none
same,Mite infestation rate per mouse,"M. musculinus; subcutaneous 10 mg/kg, Day 13",none
same,Mite infestation rate per mouse,"M. musculinus; subcutaneous 10 mg/kg, Day 23",none
same,Mite infestation rate per mouse,"M. musculinus; topical 100 ppm body weight, Day 1",+
same,Mite infestation rate per mouse,"M. musculinus; topical 100 ppm body weight, Day 6",2 mice: none and 1 mouse: +
same,Mite infestation rate per mouse,"M. musculinus; topical 100 ppm body weight, Day 9",none
same,Mite infestation rate per mouse,"M. musculinus; topical 100 ppm body weight, Day 13",none
same,Mite infestation rate per mouse,"M. musculinus; topical 100 ppm body weight, Day 23",none
same,Efficacy against soft ticks (killed 24 hr after infestation),"[2]; intraperitoneal 10 mg/kg, after Day 31",No efficacy was detected after Day 31.
same,Efficacy against soft ticks (killed 24 hr after infestation),"[2]; intraperitoneal 10 mg/kg, up to Day 31",100% efficacy was observed up to Day 31.
same,Efficacy against soft ticks (killed 24 hr after infestation),"[2]; oral 10 mg/kg, up to Day 31",100% efficacy was observed up to Day 31.
same,Efficacy against soft ticks (killed 24 hr after infestation),"[2]; subcutaneous 10 mg/kg, after Day 33",No efficacy was detected after Day 33.
same,Efficacy against soft ticks (killed 24 hr after infestation),"[2]; subcutaneous 10 mg/kg, up to Day 31",100% efficacy was observed up to Day 31.
same,Efficacy against soft ticks (killed 24 hr after infestation),"[2]; subcutaneous 10 mg/kg, up to Day 33",70% efficacy was observed up to Day 33.
same,Efficacy against bed bugs (killed 24 hr after infestation),"[3]; intraperitoneal 10 mg/kg, after Day 35",35. No efficacy was detected after Day 35.
same,Efficacy against bed bugs (killed 24 hr after infestation),"[3]; intraperitoneal 10 mg/kg, up to Day 33",100% efficacy was observed up to Day 33.
same,Efficacy against bed bugs (killed 24 hr after infestation),"[3]; oral 10 mg/kg, up to Day 31",100% efficacy was observed up to Day 31.
same,Efficacy against bed bugs (killed 24 hr after infestation),"[3]; subcutaneous 10 mg/kg, after Day 42",42. No efficacy was detected after Day 42.
same,Efficacy against bed bugs (killed 24 hr after infestation),"[3]; subcutaneous 10 mg/kg, up to Day 35",100% efficacy was observed up to Day 35.
same,Efficacy against bed bugs (killed 24 hr after infestation),"[3]; subcutaneous 10 mg/kg, up to Day 40",90% efficacy was observed up to Day 40.
same,Engorged R. sanguineus nymphs collected,[4],no nymphs were collected
same,Inhibition of engorged nymphs,[4],100%
same,Side effects,[5],No side effects were observed
same,Death of the orally treated Guinea pig (Animal No. 1) after Day 31,"[6]; Guinea pig, oral 10 mg/kg, without clinical symptoms",not considered to be treatment-related
same,Side effects,"[6]; Guinea pigs, oral, subcutaneous or intraperitoneal 10 mg/kg",No side effects were observed
same,Side effects,[7],No side effects were observed
